By Cmax is commonly meant the highest concentration seen after dosing.

The nature of series [1]: Mouse pharmacokinetics study, 50 mg/kg oral gavage, plasma LC-MS/MS. The note with it: male C57BL/6 mice, non-fasted. The series is classed as in vivo. The protocol: Compounds were formulated in 5% DMSO, 5% Solutol, and […] phosphate buffered saline at a concentration of 5 mg/mL, and typically appeared as a fine homogenous suspension. Male C57BL/6 mice (n=3/compound) were administered a 50 mg/kg dose of each compound by oral gavage under a non-fasted condition. Blood samples were collected via the saphenous vein onto K2-EDTA at 0.25, 0.5, 1, 2, 4, 8 and 24 hours after dosing, and plasma was prepared and stored at […] until analysis. Plasma sample preparation for analysis was done by protein precipitation using acetonitrile (including Celecoxib as an internal standard) followed by centrifugation. Compound concentrations were determined in extracted plasma using LC-MS/MS relative to an 8 point standard curve covering the 1 to 3000 ng/mL range. Non-compartmental analysis using Phoenix WinNonlin was used to estimate pharmacokinetic parameters including area under the curve, clearance, and half-life. The administered dose was confirmed by analysis of residual dosing material by UPLC-UV relative to a single point calibration sample.

For series [2], the target named is MRGPRX4 (Homo sapiens, UniProt Q96LA9). Put plainly: MRGPR X4 antagonist activity, IP-One Gq HTRF assay in stably transfected HEK cells (versus agonist bilirubin, deoxycholic acid, conjugated bilirubin, urobilin, obeticholic acid or BAR502). The class given is cell-based. Details: expressed in transfected cells; host or cells: HEK cells, stably transfected. The method, boiled down:
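Stably transfected HEK cells expressing human MRGPR X4, seeded overnight, given compounds as 10-point 1:3 curves from 10 uM final top, incubated 1 h at 37° C then 30 min at room temperature. IP-1 measured by IP-One Gq HTRF. IC50 derived from the HTRF ratio.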
In general terms: Time-resolved FRET reads energy transfer from a long-lived donor to a nearby acceptor.

Setting [3] is: versus 10 μM Bilirubin agonist, HEK cells expressing human MRGPR X4, read-out: MRGPR4 Antagonist Activity.
Where [4] appears, read: versus 10 μM Bilirubin agonist, read-out: IC50 (Bilirubin agonist).
[5] abbreviates: versus 20 μM deoxycholic acid, read-out: IC50 (Deoxycholic Acid agonist).
Where [6] appears, read: versus 20 μM obeticholic acid, read-out: IC50 (Obeticholic Acid Agonist).
The mark [7] stands for this setting: versus 50 μM urobilin, read-out: IC50 (Urobilin Agonist).
Setting [8] is: versus 100 μM conjugated bilirubin, read-out: IC50 (Conjugated Bilirubin Agonist).
Setting [9] is: read-out: IC50 (10 μM BAR502) nM, MRGPRX4 antagonists versus 10 μM BAR502 agonist.

Where two headings read alike, the source gives them in different places.

Chain of MRGPRX4 (Q96LA9 whole entry): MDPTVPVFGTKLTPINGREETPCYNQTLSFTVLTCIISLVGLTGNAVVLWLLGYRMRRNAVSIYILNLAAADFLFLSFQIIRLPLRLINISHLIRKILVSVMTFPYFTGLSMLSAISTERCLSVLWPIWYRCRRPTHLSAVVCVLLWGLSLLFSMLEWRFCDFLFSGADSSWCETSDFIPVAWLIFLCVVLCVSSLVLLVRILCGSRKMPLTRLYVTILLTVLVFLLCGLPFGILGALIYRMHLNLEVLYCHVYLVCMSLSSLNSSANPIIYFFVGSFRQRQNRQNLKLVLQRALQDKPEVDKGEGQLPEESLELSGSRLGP

With `O=C(O)c1cccc(COc2ccc(C(F)(F)F)cc2Cl)c1` [Compound 1-29], the AUC in series [1] turned out to be 615 μMxhr. The concentration in series [1] peaked (Cmax) at 196 µM. Moreover, the T-1/2 in series [1] was determined as 4.6 h. Further, the IC50 is less than 100 nM in series [2] (setting [3]); 20 nM in series [2] (setting [4]); 46 nM in series [2] (setting [5]); 25 nM in series [2] (setting [6]); 16 nM in series [2] (setting [7]); 46 nM in series [2] (setting [8]).

`O=C(O)c1cc(COc2ccc(C(F)(F)F)cc2Cl)ccc1F` [Compound 1-85, 5-((2-chloro-4-(trifluoromethyl)phenoxy)methyl)-2-fluorobenzoic acid] came in with an AUC in series [1] of 1069 μMxhr. This compound came in with a Cmax in series [1] of 239 µM. The same compound registered a T-1/2 in series [1] of 4.7 h. Also, the IC50 in series [2] (setting [3]) was less than 100 nM; in series [2] (setting [4]) it was 20 nM; in series [2] (setting [5]) it was 30 nM; in series [2] (setting [6]), 15 nM; in series [2] (setting [7]) it was 41 nM; in series [2] (setting [8]), 29 nM.

Take `O=C(O)c1cccc(COc2ccc(Cl)cc2Cl)c1F` [Compound 4-1, 3-((2,4-dichlorophenoxy)methyl)-2-fluorobenzoic acid]: the AUC in series [1] turned out to be 1503 μMxhr. This compound yielded a Cmax in series [1] of 231 µM. This compound also displayed a T-1/2 in series [1] of 5.9 h. The IC50 was less than 100 nM in series [2] (setting [3]), 27 nM in series [2] (setting [4]), 55 nM in series [2] (setting [5]) and 81 nM in series [2] (setting [8]).

On to `Cc1cc(COc2ccc(C(F)(F)F)cc2C)cc(C(=O)O)c1` [Compound 4-11], for which the AUC in series [1] was 572 μMxhr. In addition, in series [1], the highest level (Cmax) was 257 µM. This compound came in with a T-1/2 in series [1] of 3.6 h. Besides, the IC50 in series [2] (setting [3]) is less than 100 nM; in series [2] (setting [4]), 24 nM; in series [2] (setting [5]), 63 nM; in series [2] (setting [6]), 25 nM; in series [2] (setting [7]) it was 35 nM; in series [2] (setting [8]) it was 41 nM.

As for `O=C(O)c1cc(F)cc(COc2ccc(C(F)(F)F)cc2Cl)c1` [Compound 1-65, 3-((2-chloro-4-(trifluoromethyl)phenoxy)methyl)-5-fluorobenzoic acid], the AUC in series [1] was found to be 1037 μMxhr. Besides, the concentration in series [1] peaked (Cmax) at 220 µM. In addition, the T-1/2 in series [1] was 4.8 h. Further, the IC50 is 13 nM in series [2] (setting [9]); less than 100 nM in series [2] (setting [3]); 9 nM in series [2] (setting [4]); 28 nM in series [2] (setting [5]); 23 nM in series [2] (setting [6]); 21 nM in series [2] (setting [7]). Also, the IC50 in series [2] (setting [8]) is 17 nM.

Turning to `O=C(O)c1cccc(COc2ccc(Cl)c(Cl)c2Cl)c1` [Compound 1-78], the AUC in series [1] worked out at 219 μMxhr. In addition, in series [1], the Cmax turned out to be 57 µM. The compound also yielded a T-1/2 in series [1] of 4.0 h. Further, the IC50 is 20 nM in series [2] (setting [9]); less than 100 nM in series [2] (setting [3]); 7 nM in series [2] (setting [4]); 24 nM in series [2] (setting [5]); 21 nM in series [2] (setting [6]); 13 nM in series [2] (setting [7]). Also, the IC50 in series [2] (setting [8]) was determined as 24 nM.

Take `O=C(O)c1cccc(COc2ccc(Cl)cc2Cl)n1` [Compound 1-115]: the AUC in series [1] amounted to 1206 μMxhr. The same compound returned a Cmax in series [1] of 306 µM. Moreover, in series [1], the T-1/2 was 3.0 h. Further, the IC50 is less than 100 nM in series [2] (setting [3]); 81 nM in series [2] (setting [4]); 230 nM in series [2] (setting [5]); 47 nM in series [2] (setting [6]); 180 nM in series [2] (setting [8]).

For `O=C(O)c1cccc(NC(=O)c2cccc(COc3ccc(C(F)(F)F)cc3Cl)c2)c1` [Compound 54-11], the IC50 in series [2] (setting [3]) is greater than 2500 nM.

`O=C(N[C@@H](CO)C(=O)O)c1cccc(COc2ccc(C(F)(F)F)cc2Cl)c1` [Compound 54-9]: in series [2] (setting [3]), the IC50 is 100 to 500 nM.

`N#Cc1cc(COc2ccc(C(F)(F)F)c(Cl)c2)cc(C(=O)O)c1` [Compound 32-5]: in series [2] (setting [3]), the IC50 was less than 100 nM.

For the compound `CC(C)(C)c1ccccc1OCc1cccc(C(=O)O)c1` [Compound 1-144], the IC50 in series [2] (setting [3]) was greater than 2500 nM.

Regarding `N#Cc1ccc(OCc2cccc(C(=O)O)c2)cc1Cl` [Compound 1-90], the IC50 in series [2] (setting [3]) was in the range of 100 to 500 nM.

`COc1cc(OCc2cccc(C(=O)O)c2)ccc1C(F)(F)F` [Compound 1-67]: the IC50 in series [2] (setting [3]) fell in the range of 500 to 1000 nM.

Consider `Cc1cc(Cl)ccc1OCc1cccc(C(=O)O)n1` [Compound 1-57], for which, in series [2] (setting [3]), the IC50 was in the range of 100 to 500 nM.

In the case of `FC(F)(F)c1ccc(OCc2cccc(-c3cnc[nH]3)c2)c(Cl)c1` [Compound 47-1, 5-(3-((2-chloro-4-(trifluoromethyl)phenoxy)methyl)phenyl)-1H-imidazole], in series [2] (setting [3]), the IC50 was 500 to 1000 nM.

Consider `N#Cc1cccc(COc2ccc(Cl)cc2Cl)c1` [Compound 3-1], for which, in series [2] (setting [3]), the IC50 lay in the range of 500 to 1000 nM.

`O=C(O)c1cccc(COc2ccc3ccccc3c2)c1F` [Compound 1-58]: the IC50 in series [2] (setting [3]) is less than 100 nM.

With `O=C(O)c1cccc(COc2ccc(C(F)(F)F)cc2C2CC2)c1` [Compound 34-1, 3-((2-cyclopropyl-4-(trifluoromethyl)phenoxy)methyl)benzoic acid], the IC50 in series [2] (setting [3]) was in the range of 500 to 1000 nM.

In the case of `CCOC(=O)c1cccc(COc2ccc(C(F)(F)F)cc2Cl)n1` [Compound 56-2], in series [2] (setting [3]), the IC50 was less than 100 nM.

On to `O=C(O)c1cccc(COc2ccc(OC(F)(F)F)cc2Cl)c1` [Compound 1-103], for which, in series [2] (setting [3]), the IC50 was less than 100 nM.

For the compound `O=C(O)c1ccccc1COc1ccc(Cl)cc1Cl` [Compound 1-114], in series [2] (setting [3]), the IC50 is 1000 to 2500 nM.

Take `COc1ccc(OCc2cccc(C(=O)O)c2)c(F)c1F` [Compound 1-96]: the IC50 in series [2] (setting [3]) was 500 to 1000 nM.

For `O=C(O)c1cc(COc2ccc(C(F)(F)F)cc2Cl)cc(C(F)(F)F)c1` [Compound 4-20], the IC50 in series [2] (setting [3]) was 100 to 500 nM.

In the case of `O=C(NCCO)c1cccc(COc2ccc(C(F)(F)F)cc2Cl)c1` [Compound 52-16], the IC50 in series [2] (setting [3]) lay within 100 to 500 nM.

As for `COC(=O)c1cccc(COc2ccc(C(F)(F)F)cc2Cl)c1F` [Compound 1-117], in series [2] (setting [3]), the IC50 lay within 500 to 1000 nM.

Take `O=C(O)c1cccc(COc2ccc(C(F)F)cc2F)c1` [Compound 33-4]: the IC50 in series [2] (setting [3]) was 100 to 500 nM.

Turning to `O=C(O)c1cc(COc2ccc(Cl)cc2Cl)ccc1F` [Compound 4-3], the IC50 in series [2] (setting [3]) lay in the range of 100 to 500 nM.

Take `O=C(O)c1cccc(COc2ccc(C(F)(F)F)cc2C(F)(F)F)c1` [Compound 1-73]: the IC50 in series [2] (setting [3]) is less than 100 nM.

For the compound `COc1ccc(OCc2cccc(C(=O)O)c2)cc1` [Compound 1-38], the IC50 in series [2] (setting [3]) lay within 100 to 500 nM.

As to `COc1ccc(OCc2cccc(C(=O)O)c2)c2ccccc12` [Compound 1-147], in series [2] (setting [3]), the IC50 lay within 1000 to 2500 nM.

For the compound `CCCCNC(=O)c1cccc(COc2ccc(C(F)(F)F)cc2Cl)c1` [Compound 52-7], the IC50 in series [2] (setting [3]) was in the range of 100 to 500 nM.

Turning to `NC(=O)CNC(=O)c1cccc(COc2ccc(C(F)(F)F)cc2Cl)c1` [Compound 52-22], the IC50 in series [2] (setting [3]) was 100 to 500 nM.

`NC(=O)CC[C@H](NC(=O)c1cccc(COc2ccc(C(F)(F)F)cc2Cl)c1)C(=O)O` [Compound 55-3]: in series [2] (setting [3]), the IC50 was in the range of 100 to 500 nM.

With `COC(=O)c1cccc(COc2ccc(N3CCOCC3)cc2)c1` [Compound 1-7], the IC50 in series [2] (setting [3]) was in the range of 1000 to 2500 nM.

Turning to `O=C(O)c1cccc(COc2ccc(C(F)(F)F)cc2Br)c1` [Compound 1-120], in series [2] (setting [3]), the IC50 is less than 100 nM.

In the case of `O=C(O)c1cccc(COc2ncc(C(F)(F)F)cc2Cl)c1` [Compound 35-1, 3-(((3-chloro-5-(trifluoromethyl)pyridin-2-yl)oxy)methyl)benzoic acid], the IC50 in series [2] (setting [3]) is 100 to 500 nM.

`Cc1cc(OCc2cccc(C(=O)O)c2)ccc1Cl` [Compound 1-72]: the IC50 in series [2] (setting [3]) lay in the range of 500 to 1000 nM.

On to `O=C(O)c1cccc(CNc2ccc(C(F)(F)F)cc2Cl)c1` [Compound 12-4], for which, in series [2] (setting [3]), the IC50 is less than 100 nM.

As for `CN(C)CCNC(=O)c1cccc(COc2ccc(C(F)(F)F)cc2Cl)c1` [Compound 52-17], in series [2] (setting [3]), the IC50 was in the range of 500 to 1000 nM.

Consider `Cc1cc(COc2ccc(Cl)c(Cl)c2Cl)nc(C(=O)O)c1` [Compound 2-4], for which the IC50 in series [2] (setting [3]) is less than 100 nM.

As for `N#Cc1cc(COc2ccc(Cl)cc2Cl)cc(C(=O)O)c1` [Compound 5-1, 3-cyano-5-((2,4-dichlorophenoxy)methyl)benzoic acid], the IC50 in series [2] (setting [3]) was less than 100 nM; in series [2] (setting [4]) it was 10 nM; in series [2] (setting [5]), 23 nM; in series [2] (setting [6]), 6 nM; in series [2] (setting [7]), 6 nM; in series [2] (setting [8]), 27 nM.

As to `O=C(O)c1cccc(COc2cccc3ccccc23)c1` [Compound 1-49], the IC50 in series [2] (setting [3]) is 500 to 1000 nM.

Take `O=C(O)c1cc(Br)cc(COc2ccc(C(F)(F)F)cc2Cl)c1` [Compound 2-3]: the IC50 in series [2] (setting [3]) was less than 100 nM.

For `FC(F)(F)c1ccc(OCc2cccc(-c3cn[nH]n3)c2)c(Cl)c1` [Compound 48-1, 4-(3-((2-chloro-4-(trifluoromethyl)phenoxy)methyl)phenyl)-2H-1,2,3-triazole], the IC50 in series [2] (setting [3]) lay in the range of 1000 to 2500 nM.
